Data taken from patent publication US8518859B2, “Method for increasing yield of staple food crop” (National University Corporation Shizuoka University, priority 2009, dated 2013).
Marks after values point to notes of the source that are not given here.

Key:
[1] = test system: Rice (cultivar: "Nipponbare"); test: Yield-increasing effect in hydroponic culture of rice (Example 1); assay type: in vivo, rice (genus Oryza)
Experimental: Rice (cultivar: “Nipponbare”) was used in the test. Seeds thereof were sown in a nursery box, and after 20 days of cultivation, the resulting rice seedlings were transplanted one by one to a pot (1/5000-a) and cultivated for 1 week with tap water.
After the cultivation with tap water, the thus obtained rice plants were cultured in a culture medium added with the AHX (50 μM), which was synthesized in the above, in an outdoor environment over a period of 97 days starting in July.
During the periods from the 8th day to the 32nd day and the period from the 73rd day to the 97th day after the transplantation, the culture was carried out in a medium having a half concentration of the undiluted culture medium, and during the period from the 33rd day to the 72nd day, the undiluted culture medium was used.
Water and nutrients were supplied once every 3 days. As the medium used for the addition, the culture medium for the AHX-treated section and the culture medium for the control section were respectively used in the AHX-treated section and the control section. It is noted here, however, that the culture medium was replaced once a week in the case of hydroponic culture.
The cereal crops obtained by the culture were dried for 2 weeks and the following items were measured: brown rice mass; water content, carbon content and nitrogen content of brown rice; size and number of brown rice (per plant); leaf length; culm length; panicle length; number of panicles; tiller number; and mass of the above-ground and underground parts. Here, the size of brown rice means the mass per grain determined from the brown rice mass (g/100 brown rice grains) and the number of brown rice refers to a value obtained by dividing the brown rice weight (g/plant) by the brown rice weight (g/100 brown rice grains) (number of plants n=6).

[2] = test system: rice (Nipponbare); test: Yield-increasing effect in soil culture of rice 1 (Example 2); assay type: in vivo, rice (genus Oryza); details: AHX 50 μM
Experimental: (§1) Soil culture was carried out for 97 days starting in July in the same manner as in Example 1, except that seedlings of rice (Nipponbare) were transplanted one by one to a soil (in 1/5000-a pot) which contains a fertilizer containing N (1,440 mg), P2O5 (12 mg), K2O (760 mg) and CaO (806 mg).
Water and nutrients were supplied once a day. As the medium used for the addition, the culture medium for the AHX (50 μM)-treated section and the culture medium for the control section were respectively used in the AHX (50 μM)-treated section and the control section. It is noted here that, unlike the case of hydroponic culture, the culture medium was not replaced.
The cereal crops obtained by the soil culture were dried for 2 weeks and the following items were measured in the same manner as in Example 1: brown rice mass; water content, carbon content and nitrogen content of brown rice; size and number of brown rice (per plant); leaf length; culm length; panicle length; number of panicles; tiller number; and mass of the above-ground part (n=7).

[3] = test system: rice (Nipponbare); test: Yield-increasing effect in soil culture of rice 2 (Example 3); assay type: in vivo, rice (genus Oryza); details: for Brown rice weight (g/plant): soil culture Jun. 10 to Sep. 29, n=6; for Brown rice weight (g/100 brown rice grains) / Culm length (cm) / Mass of the above-ground part (g/plant) / Number of panicles (/plant) / Panicle length (cm): n=6; for Brown rice size: mass per grain
Experimental: as §1, with “from Jun. 10, 2009 to Sep. 29, 2009” for “for 97 days starting in July”, “(Nipponbare) obtained by a 30-day cultivation” for “(Nipponbare)”
Water and nutrients were supplied once a day. As the medium used for the addition, the culture medium for the AHX (5 μM)-treated section, the culture medium for the ICA (2 μM)-treated section and the culture medium the control section were respectively used in the AHX (5 μM)-treated section, the ICA (2 μM)-treated section and the control section. It is noted here that, unlike the case of hydroponic culture, the culture medium was not replaced.
(§2) The cereal crops obtained by the soil culture were dried for 2 weeks and the following items were measured: brown rice mass; water content of brown rice; size and number of brown rice (per plant); panicle length; culm length; number of panicles; and mass of the above-ground part (n=6).

[4] = test system: Rice (cultivar: "Nipponbare"); test: Yield-increasing effect in soil culture of rice 3, treatment before planting (Example 4); assay type: in vivo, rice (genus Oryza)
Experimental: Rice (cultivar: “Nipponbare”) was used in the test. Seeds thereof were sown in a nursery box, and after 16 days of cultivation, the resulting rice seedlings were transplanted to a pot (1/5000-a) and hydroponically cultured in a culture medium added with the AHX (1 mM) synthesized in the above for 2 weeks before settled-planting.
After the above-described hydroponic culture, the resulting seedlings were settled-planted in soil (in 1/5000-a pot) which contains a fertilizer containing N (1,440 mg), P2O5 (12 mg), K2O (760 mg) and CaO (806 mg). and soil-cultured from Jun. 10, 2009 to Sep. 29, 2009 in the same manner as in Example 1. During the soil culture period, no treatment with AHX was performed, and water and nutrients were supplied once per day. It is noted here that the culture medium was not replaced.
as §2

[5] = test system: seed potato (cultivar: "Danshaku"); test: Yield-increasing effect in potato (Example 5); assay type: in vivo, potato (genus Solanum)
Experimental: A seed potato (cultivar: “Danshaku”) was cut into pieces of 30 g to 35 g in weight and they were each allowed to take roots in soil (in 1/2000-a pot) which contains a fertilizer containing N (960 mg), P2O5 (480 mg), K2O (640 mg) and MgO (320 mg). After 2-weeks of cultivation with tap water (after an above-ground part appeared), 2.74 mg (20 μmol) of AHX was dissolved in tap water and added to the pot every week. The Danshaku potato was cultured in an outdoor environment over a period of 12 weeks starting in January. The control section was treated with tap water only.
After 12 weeks, the Danshaku potato was harvested to measure the tuber mass (for the whole potato and a group consisting of potatoes having a weight of not less than 20 g that were extracted), the length and mass of the above-ground part and the leaf length (n=5).

[6] = test system: wheat (Nourin 61); test: Yield-increasing effect in wheat (Example 6); assay type: in vivo, wheat (genus Triticum); details: 6 pots
Experimental: In 1/2000-a pots having crushed gravel in the bottom, 6 kg of a paddy-rice nursery soil was placed and, as a base fertilizer, 5-7-6 (N—P—K) was added in an amount of 4 g. The soil was sufficiently watered and 3 days later, 10 grains of wheat (Nourin 61) were sown in each pot. The wheat was cultured providing 300 ml of water once a week, and the seedlings were thinned 2 weeks after germination to leave 5 seedlings showing good growth. In the subsequent two weeks, a total of 6 pots were each treated once a week with AHX (5 μM), AHX (50 μM), AHX (1 mM), ICA (2 μM) or water only (control). Then, after culturing for 9 weeks providing 300 ml of just water once a week, the culture was continued for another 12 weeks by changing the amount of water to 500 ml once a week. It is noted here that, 2 weeks after the change was made in the amount of water, 0.75 g of ammonium sulfate was added to each pot as a panicle fertilizer. Further, the AHX (1 mM) treatment pots were subjected to an additional treatment with AHX (1 mM) for 2 weeks after the addition of the panicle fertilizer. The culture was carried out from Oct. 26, 2009 to May 12, 2010. After the completion of the culture, drying was performed for two weeks and the total wheat yield (g/5 plants) was measured.

[7] = AHX 50 μM, hydroponic culture 97 days, n=6
[8] = 1 mM-treatment before planting, soil culture, n=6
[9] = 20 μmol AHX per pot every week, 12 weeks, n=5

O=c1[nH]nnc2nc[nH]c12 [AHX, 2-azahypoxanthine]
Brown rice weight (g/plant) ([1]; AHX 50 μM in culture medium, hydroponic culture 97 days, n=6): 34.6 * g/plant | Number of brown rice (/plant) ([1]; AHX 50 μM, hydroponic culture 97 days): 1544 /plant | Brown rice weight (g/100 brown rice grains) [1, 7]: 2.24 * g/100 brown rice grains | Culm length (cm) [1, 7]: 60.7 cm | Leaf length (cm) [1, 7]: 72.2 * cm | Mass of the above-ground part (g/plant) [1, 7]: 103 *^ g/plant | Mass of underground part (g/plant) [1, 7]: 8.56 g/plant | Number of panicles (/plant) [1, 7]: 30.8 * /plant | Panicle length (cm) [1, 7]: 21.4 * cm | Tiller number (/plant) [1, 7]: 25.1 /plant | Brown rice size ([1]; AHX 50 μM, hydroponic culture 97 days, mass per grain): 22.4 mg | Increase of brown rice weight per plant ([1]; AHX 50 μM, hydroponic culture, vs control): about 6% | Number of brown rice (/plant) ([2]; soil culture 97 days): 1864 /plant | Brown rice weight (g/100 brown rice grains) ([2]; soil culture 97 days, n=7): 2.28 g/100 brown rice grains | Brown rice weight (g/plant) ([2]; soil culture 97 days, n=7): 42.5 * g/plant | Culm length (cm) ([2]; soil culture 97 days, n=7): 70.0 cm | Leaf length (cm) ([2]; soil culture 97 days, n=7): 76.5 cm | Mass of the above-ground part (g/plant) ([2]; soil culture 97 days, n=7): 122 *^ g/plant | Number of panicles (/plant) ([2]; soil culture 97 days, n=7): 24.5 /plant | Panicle length (cm) ([2]; soil culture 97 days, n=7): 21.1 cm | Tiller number (/plant) ([2]; soil culture 97 days, n=7): 26.2 /plant | Brown rice size ([2]; soil culture 97 days, mass per grain): 22.8 mg | Increase of brown rice weight per plant ([2]; soil culture, vs control): about 10% | Number of brown rice (/plant) ([3]; 5 μM, soil culture): 2086 /plant | Brown rice weight (g/plant) ([3]; 5 μM): 46.3 * g/plant | Brown rice weight (g/100 brown rice grains) ([3]; 5 μM, soil culture): 2.22 g/100 brown rice grains | Culm length (cm) ([3]; 5 μM, soil culture): 89.8 cm | Mass of the above-ground part (g/plant) ([3]; 5 μM, soil culture): 150 g/plant | Number of panicles (/plant) ([3]; 5 μM, soil culture): 30.8 /plant | Panicle length (cm) ([3]; 5 μM, soil culture): 20.8 cm | Increase of brown rice weight per plant ([3]; 5 μM, soil culture, vs control): about 25% | Brown rice size ([3]; 5 μM, soil culture): 22.2 mg | Number of brown rice (/plant) ([4]; 1 mM-treatment before planting, soil culture): 2027 /plant | Brown rice weight (g/100 brown rice grains) [4, 8]: 2.15 g/100 brown rice grains | Culm length (cm) [4, 8]: 86 cm | Mass of the above-ground part (g/plant) [4, 8]: 154 *^ g/plant | Number of panicles (/plant) [4, 8]: 33 /plant | Panicle length (cm) [4, 8]: 21.1 cm | Brown rice size ([4]; 1 mM-treatment before planting, soil culture, mass per grain): 21.5 mg | Increase of brown rice weight per plant ([4]; 1 mM-treatment before planting, vs control): about 18% | Brown rice weight (g/plant) ([4]; 1 mM-treatment for 2 weeks before planting, then soil culture without AHX, n=6): 43.6 * g/plant | Leaf length (cm) [5, 9]: 7 cm | Length of the above-ground part (cm) [5, 9]: 24 cm | Mass of the above-ground part (g/plant) [5, 9]: 30 g/plant | Total mass (g · potatoes of not less than 20 g/plant) [5, 9]: 85 * g · potatoes of not less than 20 g/plant | Total mass (g/plant) of tubers ([5]; 2.74 mg (20 μmol) AHX per pot every week, 12 weeks, soil, n=5): 95 * g/plant | Increase of total mass of potatoes ([5]; treated with AHX for 12 weeks, vs control): about 19% | Increase of mass, only potatoes of not less than 20 g ([5]; treated with AHX for 12 weeks, vs control section): about 40% | Seed Yield (g/5 plants) ([6]; 5 μM, once a week for two weeks, soil pots): 44.66 g/5 plants | Seed Yield (g/5 plants) ([6]; 50 μM, once a week for two weeks, soil pots): 45.68 g/5 plants | Seed Yield (g/5 plants) ([6]; 1 mM, once a week for two weeks plus additional 2 weeks after panicle fertilizer): 46.79 g/5 plants

NC(=O)c1c[nH]cn1 [ICA, imidazole-4-carboxamide]
Number of brown rice (/plant) ([3]; 2 μM, soil culture): 2104 /plant | Brown rice weight (g/plant) ([3]; 2 μM): 46.5 * g/plant | Brown rice weight (g/100 brown rice grains) ([3]; 2 μM, soil culture): 2.21 g/100 brown rice grains | Culm length (cm) ([3]; 2 μM, soil culture): 87.2 cm | Mass of the above-ground part (g/plant) ([3]; 2 μM, soil culture): 152 g/plant | Number of panicles (/plant) ([3]; 2 μM, soil culture): 30.5 /plant | Panicle length (cm) ([3]; 2 μM, soil culture): 22.1 cm | Increase of grain weight per plant ([3]; 2 μM, soil culture, vs control): about 26% | Brown rice size ([3]; 2 μM, soil culture): 22.1 mg | Seed Yield (g/5 plants) ([6]; 2 μM, once a week for two weeks, soil pots): 47.99 g/5 plants
